The record followed here is patent US7405299B2, “Compounds as pharmaceutical agents” (Eli Lilly and Company, priority 2003, dated 2008).

Each structure is given as a SMILES string.

For the compound `c1ccc(-c2nn3c(c2-c2cccc4nsnc24)CCC3)nc1` [Example 4, 4-[2-(Pyridin-2-yl)-5,6-dihydro-4H-pyrrolo[1,2-b]pyrazol-3-yl]-benzo [2,1,3]thiadiazole], the melting point lay within 140 to 142 °C. For `c1ccc(-c2nn3c(c2-c2ccc4nsnc4c2)CCC3)nc1` [Example 5, 5-[2-(Pyridin-2-yl)-5,6-dihydro-4H-pyrrolo[1,2-b]pyrazol-3-yl]benzo[2,1,3]thiadiazole] the value was 184 to 186 °C; for `c1ccc(-c2nn3c(c2-c2nc4ncccc4[nH]2)CCC3)nc1` [Example 8, 2-[2-(Pyridin-2-yl)-5,6-dihydro-4H-pyrrolo[1,2-b]pyrazol-3-yl]-1H-imidazo[4,5-b]pyridine], 170 to 172 °C; for `c1ccc(-c2nn3c(c2-c2nc4cnccc4[nH]2)CCC3)nc1` [Example 9, 2-[2-(Pyridin-2-yl)-5,6-dihydro-4H-pyrrolo[1,2-b]pyrazol-3-yl]-1H-imidazo[4,5-c]pyridine], 201 to 203 °C. For `c1ccc(-c2nn3c(c2-c2nc4ccccc4[nH]2)CCC3)nc1` [Example 10, 2-[2-(Pyridin-2-yl)-5,6-dihydro-4H-pyrrolo[1,2-b]pyrazol-3-yl]-1H-benzoimidazole] the value was 172 to 175 °C. The figure for `c1ccc(-c2nn3c(c2-c2nc4ncccc4o2)CCC3)nc1` [Example 11, 2-[2-(Pyridin-2-yl)-5,6-dihydro-4H-pyrrolo[1,2-b]pyrazol-3-yl]-oxazolo[4,5-b]pyridine] is 182 to 184 °C; for `c1ccc(-c2nn3c(c2-c2cncc4cccnc24)CCC3)nc1` [Example 80a, 8-(2-Pyridin-2-yl-5,6-dihydro-4H-pyrrolo[1,2-b]pyrazol-3-yl)-[1,6]naphthyridine] it is 180 to 184 °C.
